Assay results published in ChEMBL document CHEMBL4765311, “Synthesis and biological evaluation of 4-(pyridin-4-oxy)-3-(3,3-difluorocyclobutyl)-pyrazole derivatives as novel potent transforming growth factor-β type 1 receptor inhibitors” (Eur J Med Chem, 2020).

Tests used:
in vivo [1] = settings: BALB/c, mouse, po, 10 mg/kg
in vivo [2] = settings: BALB/c, mouse, iv, 1 mg/kg
in vivo [3] = settings: BALB/c, mouse, po, 10 mg/kg; remark: listed apart in the source
in vivo [4] = settings: BALB/c, mouse, iv, 1 mg/kg; remark: listed apart in the source
in vivo [5] = settings: BALB/c, mouse, iv, 1 mg/kg; remark: listed apart in the source
in vivo [6] = settings: BALB/c, mouse, po, 10 mg/kg; remark: listed apart in the source

half-life at 24 h (in vivo [1]): 66 min
clearance at 24 h (in vivo [2]): 86.7 mL/min/kg
bioavailability at 24 h (in vivo [3]): 45.6%
Vd at 24 h (in vivo [4]): 2.3 L/kg
half-life at 24 h (in vivo [5]): 24 min
Cmax at 24 h (in vivo [6]): 747 ng/mL
Structure (SMILES): CC(C)(O)c1cc(Nc2cc(Oc3cn(C4CC4)nc3C3CCOCC3)ccn2)ccn1 [LY-3200882]
